In data set [1] the test system is T-47D cells. In words: Reversal of DFMO-induced cytostasis by exogenous spermidine in T-47D cells. The class given is cell-based, human. The conditions noted are these: T-47D cells with extracellular spermidine and DFMO. Here is the method:
FIGS. 6A, 6B, 6C and 6D are graph showing that antagonism of DFMO-induced cytostasis by exogenous spermidine depends on the polyamine and linker structure of the compounds used in a method according to a preferred embodiment of the invention. In particular, T-47D cells were grown for 8-9 d with the indicated concentrations of spermidine in medium containing 1 mM aminoguanidine, in the presence of DFMO (●), transport inhibitor (□), DFMO plus transport inhibitor (▪), or in the absence of either agent (∘), and total DNA content per culture was then determined. Panels A, B, C, and D describe the effect of BNSD-X, BSD-X, BNSD-3 and BSD-3, respectively. Data are presented as the mean±SD for triplicate cultures from one out of at least two identical experiments;
(§1) FIGS. 8A and 8B are graphs representing the time course of the effect of a compound used in a method according to a preferred embodiment of the invention on rescue of DFMO-induced cytostasis by exogenous spermidine. In particular, at time zero, T-47D (panel A) or CHO-K1 (panel B) were seeded at 1×10^4 or 5×10^3 cells/well, respectively, in medium containing 1 mM aminoguanidine, plus either 0.3 μM spermidine (Spd, ●), 2 mM DFMO (□), Spd+DFMO (▪), 50 μM (A) or 100 μM (B) BNSD-X (Δ), BNSD-X+Spd (▴), BNSD-X+DFMO (□), BNSD-X+Spd+DFMO (▾), or vehicle only (∘). At the indicated time, total DNA content/well was determined. Data are presented as the mean±SD for triplicate cultures from one representative experiment;
(§2) To determine the ability of polyamine transport antagonists to potentiate DFMO-induced inhibition of cell proliferation in the presence of exogenous polyamines, cells were grown for the indicated period in growth medium supplemented with 1 mM aminoguanidine, and either DFMO (1 to 5 mM), the indicated transport inhibitor (50 or 100 μM), or the combination thereof, as well as increasing concentrations of spermidine (0.1 to 300 μM). Fresh medium was added every other day, and cell mass was determined at various time points during the period of exponential growth, or at the end of the experimental period. For the latter experiments, the FBS supplement was replaced with dextran-coated charcoal-treated FBS (5%, v/v) plus 0.5 μg/ml insulin in the case of T-47D, ZR-75-1 and MCF-7 cells (U.S. Pat. No. 6,083,496).

Data set [2] concerns T-47D cells. The data set is described as follows: Effect of inhibitors on T-47D cell proliferation (DNA content). It counts as cell-based, human. The protocol: FIGS. 3A and 3B are graphs showing the effect compounds used in a method according preferred embodiment of the present invention, on cell proliferation. In particular, they relate to the effect of selected BSD and BNSD derivatives on T-47D cell proliferation. Cells were incubated for 9 d with the indicated concentrations of BSD-2 (∘), BNSD-4 (●), BSD-4 (□), BNSD-6 (▪), BSD-10 (Δ), BSD-4-ene (▴) and BSD-4-yne (▾) in medium containing 1 mM aminoguanidine, and total DNA content per culture was then determined. B, Effect of BNSD-X (N,N,N′,N′-tetrakis-(3-aminopropyl)-p-diaminoxylene) on cell proliferation in various mammalian cell lines. Jurkat (∘), LAN-1 (●), L1210 (□), T-47D (▪), ZR-75-1 (Δ) and MDA-MB-231 (▴) cells were grown to near confluency or saturation (for 4 to 11 d according to the cell line considered) with the indicated concentrations of BNSD-X in the presence of 1 mM aminoguanidine, and total DNA content per culture was then determined. Data are given as the mean±SD for triplicate cultures from one out of at least two identical experiments;
FIGS. 4A and 4B are graphs showing how compounds used in a method according to a preferred embodiment are differentially sensitive to degradation by BSAO (bovine serum amine oxidase). In particular, T-47D cells were incubated for 9 d with the indicated concentrations of BSD-X (∘), BNSD-X (●), BSD-3 (□) or BNSD-3 (▪) in the absence (A) or presence of 1 mM aminoguanidine (B), and total DNA content per culture was then determined. Data are presented as the mean±SD for triplicate cultures from one representative experiment;
The effect of transport inhibitors on cell proliferation was evaluated by determination of cell number (L1210, Jurkat) using electronic sizing with a Model ZM Coulter counter (Coulter Electronics, Hialeah, Fla.), or DNA content per culture (for all other cell lines) with the 3,5-diaminobenzoic acid assay. […] Cytotoxicity of the inhibitors was determined in the presence or absence of aminoguanidine, and was confirmed by a trypan blue exclusion assay.

Data set [3] relates to mammalian polyamine carrier. In words: Determination of polyamine uptake activity: inhibition of diamine and polyamine transport in T-47D cells. The class given is cell-based, human. The conditions noted are these: for Ki: mean±SD. Here is the method:
The rate of diamine and polyamine transport was determined in T-47D and ZR-75-1 cells incubated in serum-free RPMI 1640 medium as previously described (U.S. Pat. No. 6,083,496; Covassin et al. (1999) Bioorg. Med. Chem. Lett. 9, 1709-1714), using 20 μM [^3H]putrescine (179 Ci/mol), 5 μM [^3H]spermidine (246 Ci/mol) and 3 μM [^14C]spermine (300-400 mCi/mol) respectively, as substrates for a 20-min assay period. Uptake activity was expressed per amount of DNA as fluorometrically determined using 3,5-diaminobenzoic acid (Simard et al. (1990) Endocrinology 126, 3223-3231). Kinetic parameters of polyamine transport inhibition for the transport antagonists were determined by Lineweaver-Burke analysis of uptake activity in the presence of 0.1 μM [^3H]putrescine, 0.03 μM [^3H]spermidine, and 0.01 μM [^14C]spermine plus increasing concentrations of nonradioactive substrate. For competitive inhibitors, Ki values were estimated by iterative curve fitting for sigmoidal equations describing transport rates in the presence of increasing concentrations of antagonist, using the Cheng-Prusoff equation for competitive inhibition (U.S. Pat. No. 6,083,496).
The ability of BSD and BNSD compounds to inhibit uptake of the main natural substrates of the mammalian polyamine carrier, namely putrescine, spermidine and spermine, was evaluated using T-47D human breast cancer cells (Table 1).
Data are presented as the mean±SD of at least two independent determinations of IC50 values, each based on triplicate determinations of uptake velocity at increasing inhibitor concentrations.
The potency of the polyamines and their xylylated dimers as competitive inhibitors of spermidine transport was evaluated in the T-47D human breast cancer cell line (Table 2).

For a further data set, the system named is CHO-K1 cells. The data set is described as follows: Reversal of DFMO-induced cytostasis by exogenous spermidine in CHO-K1 cells. It counts as cell-based, Chinese hamster. The conditions noted are these: DFMO-treated CHO-K1 cells with extracellular spermidine; data not shown. Here is the method: as §1, §2
The subject of data set [4] is CHO-K1, Jurkat, L1210, MDA-MB-231, ZR-75-1 and MCF-7 cells. The data set is described as follows: Reversal of DFMO-induced cytostasis by exogenous spermidine in a variety of mammalian cell lines. The class given is cell-based. The conditions noted are these: most cell lines; concentrations as low as. Here is the method: FIGS. 5A, 5B, 5C, 5D, 5E and 5F are graphs representing that a compound used in a method according to a preferred embodiment antagonizes rescue of DFMO-induced cytostasis by exogenous spermidine. In particular, CHO-K1 (A), Jurkat (B), L1210 (C), MDA-MB-231 (D), ZR-75-1 (E) and MCF-7 cells (F) were grown to near confluency or saturation (for 4 to 11 d according to the cell line considered) with the indicated concentrations of spermidine in medium containing 1 mM aminoguanidine, in the presence of DFMO (●), BNSD-X (□), DFMO plus BNSD-X (▪), or in the absence of either agent (∘), and total DNA content per culture was then determined. The optimal concentration of either DFMO (1 to 5 mM) or BNSD-X (50 or 100 μM) was used for the each cell line as determined in pilot experiments. Data are presented as the mean±SD for triplicate cultures from one out of at least three identical experiments for each cell line;
as §2

[5] abbreviates: T-47D breast cancer cells, read-out: Ki, inhibition of [3H]putrescine uptake.
[6] abbreviates: T-47D breast cancer cells, read-out: Ki, inhibition of [3H]spermidine uptake.
The mark [7] stands for this setting: T-47D breast cancer cells, read-out: Ki, inhibition of [14C]spermine uptake.

Read-outs that look alike come from different tables or passages of the source.

With `NCCCN(CCCN)CCCN(CCCN)CCCN` [19a], the “effect on spermidine-mediated reversal of DFMO-induced growth inhibition, T-47D” value in the data set with T-47D cells [1] is recorded as “exhibited no activity”. Moreover, the “cytotoxicity in the absence of aminoguanidine” value with T-47D cells [2] was “considerably more cytotoxic than their spermidine-like homologs”. For the same compound, the Ki is 1600 ± 400 nM in data set [3] (setting [5]), 8300 ± 800 nM in data set [3] (setting [6]) and 6200 ± 1700 nM in data set [3] (setting [7]). Moreover, the “times less potent than BSD-3 as a spermidine transport antagonist” value in data set [3] (T-47D cells) was “about 5 times”. Further, in the data set with CHO-K1 cells, the “effect on spermidine-mediated reversal of DFMO-induced growth inhibition, CHO-K1” value was “exhibited no activity”.

Turning to `NCCCCN(CCCN)CCCN(CCCN)CCCCN` [19b], the “effect on spermidine-mediated reversal of DFMO-induced growth inhibition, T-47D” value in the data set with T-47D cells [1] is “significantly potentiated DFMO-induced cytostasis”. The Ki in data set [3] (setting [5]) was 240 ± 30 nM; in data set [3] (setting [6]) it was 1700 ± 400 nM; in data set [3] (setting [7]), 2800 ± 600 nM.

With `NCCCCN(CCCN)Cc1ccc(CN(CCCN)CCCCN)cc1` [28b], the “effect on spermidine-mediated reversal of DFMO-induced growth inhibition, T-47D” value in the data set on T-47D cells [1] is “did not increase the range of spermidine concentrations able to reverse inhibition of cell proliferation by DFMO”. For the same compound, the Ki turned out to be 280 ± 20 nM in data set [3] (setting [5]), 2000 ± 200 nM in data set [3] (setting [6]) and 2900 ± 600 nM in data set [3] (setting [7]). Moreover, the “effect on spermidine-mediated reversal of DFMO-induced growth inhibition, CHO-K1” value in the data set with CHO-K1 cells was “afforded increased resistance to exogenous spermidine”.

Consider `NCCCCNCCCN` [Spermidine, reference compound], for which the Km in data set [3] (T-47D breast cancer cells, substrate itself, read-out: Km for [3H]spermidine uptake) worked out at 4.4 ± 0.9 µM; in data set [3] (T-47D cells, Lineweaver-Burke analysis, 0.01-300 μM substrate, read-out: Km for spermidine uptake (Table 2)), 4.4 ± 0.9 µM. Also, the “spermidine concentration that completely counteracts DFMO-induced cytostasis” value in data set [4] was in the range of 0.3 to 1 µM.

For the origin of these results see US7425579B2, “Methods for inhibiting activity of polyamine transporters” (Universite Laval, priority 1998, dated 2008).
